Columns and labels:
Test in all cases: relative viability (nuclei count vs DMSO), 5 days (fraction); higher = more cells survive
[1] = compound: Cc1ccc(NC(=O)c2ccc(CN3CCN(C)CC3)cc2)cc1Nc1nccc(-c2cccnc2)n1 [Imatinib] + CS(=O)(=O)N1CCN(Cc2cc3nc(-c4cccc5[nH]ncc45)nc(N4CCOCC4)c3s2)CC1 [Pictilisib] (partner 1 µM)
In short: (§1)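 One day after seeding in 1536-well plates, lung cancer cell lines were dosed by pin tool. Dosing was either single-drug or a fixed anchor-drug dose plus five library-drug doses (not always all listed) in √10 steps. After 5 days, nuclei were stained in one fix-and-stain step and counted on 4× images, and relative viability is the nuclei count of treated wells over that of vehicle wells, given as the median of duplicate plates.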

[2] = compound: Cc1ccc(NC(=O)c2ccc(CN3CCN(C)CC3)cc2)cc1Nc1nccc(-c2cccnc2)n1 [Imatinib] + Cc1nc(NC(=O)N2CCC[C@H]2C(N)=O)sc1-c1ccnc(C(C)(C)C(F)(F)F)c1 [Alpelisib] (partner 2 µM)
In short: as §1

[3] = compound: Cc1ccc(NC(=O)c2ccc(CN3CCN(C)CC3)cc2)cc1Nc1nccc(-c2cccnc2)n1 [Imatinib] + Cc1nc(Nc2ncc(C(=O)Nc3c(C)cccc3Cl)s2)cc(N2CCN(CCO)CC2)n1 [Dasatinib] (partner 0.075 µM)
In short: as §1

[4] = compound: Cc1ccc(NC(=O)c2ccc(CN3CCN(C)CC3)cc2)cc1Nc1nccc(-c2cccnc2)n1 [Imatinib] + CC(=O)Nc1cccc(-n2c(=O)n(C3CC3)c(=O)c3c(Nc4ccc(I)cc4F)n(C)c(=O)c(C)c32)c1 [Trametinib] (partner 0.02 µM)
In short: as §1

Cell Line | relative viability ([1]; first compound 0.02 µM) | relative viability ([1]; first compound 0.06325 µM) | relative viability ([1]; first compound 0.2 µM) | relative viability ([1]; first compound 0.6325 µM) | relative viability ([2]; first compound 0.02 µM) | relative viability ([2]; first compound 0.06325 µM) | relative viability ([2]; first compound 0.2 µM) | relative viability ([2]; first compound 0.6325 µM) | relative viability ([2]; first compound 2 µM) | relative viability ([3]; first compound 0.02 µM) | relative viability ([3]; first compound 0.06325 µM) | relative viability ([3]; first compound 0.2 µM) | relative viability ([3]; first compound 0.6325 µM) | relative viability ([3]; first compound 2 µM) | relative viability ([4]; first compound 0.02 µM) | relative viability ([4]; first compound 0.06325 µM) | relative viability ([4]; first compound 0.2 µM) | relative viability ([4]; first compound 0.6325 µM) | relative viability ([4]; first compound 2 µM) | relative viability ([1]; first compound 2 µM)
NCI-H650 | 1.09 | 1.01 | 0.855 | 0.885 | 1.19 | 1.15 | 1.08 | 1.2 | 0.983 | 0.5 | 0.425 | 0.488 | 0.53 | 0.406 | 0.969 | 0.833 | 0.937 | 1.04 | 0.843 | 
NCI-H2170 | 0.292 | 0.334 | 0.283 | 0.254 | 0.954 | 0.931 | 0.846 | 0.789 | 0.797 | 0.636 | 0.582 | 0.477 | 0.48 | 0.411 | 1 | 1.06 | 1.02 | 0.972 | 0.965 | 0.26
NCI-H441 | 0.501 | 0.437 | 0.578 | 0.502 | 0.633 | 0.903 | 0.87 | 0.706 | 0.605 | 0.713 | 0.619 | 0.693 | 0.745 | 0.546 | 0.537 | 0.459 | 0.572 | 0.517 | 0.37 | 0.435
HCC-366 | 0.131 | 0.119 | 0.19 | 0.144 | 0.543 |  | 0.431 | 0.362 | 0.35 | 0.805 |  | 0.822 | 0.648 | 0.584 | 0.423 | 0.346 | 0.45 | 0.321 | 0.432 | 0.223
NCI-H2009 | 0.809 | 0.429 | 0.909 | 0.878 | 1.18 | 1.24 | 1.26 | 1.21 | 1.13 | 0.282 |  | 0.304 | 0.253 | 0.288 | 0.319 | 0.214 | 0.255 | 0.296 | 0.246 | 0.896
NCI-H1792 | 0.264 | 0.198 | 0.214 | 0.237 | 0.921 | 0.515 | 0.661 | 0.507 | 0.638 | 0.847 | 0.429 | 0.769 | 0.596 | 0.666 | 0.534 | 0.311 | 0.521 |  | 0.427 | 0.277
SW 900 |  |  |  |  |  |  |  |  |  | 0.552 | 0.412 | 0.641 | 0.48 | 0.567 | 0.776 | 0.625 | 0.641 | 0.756 | 0.76 | 
COR-L23 | 1.02 | 0.715 | 1.1 | 0.786 | 0.794 | 1.02 | 0.969 | 0.806 | 0.902 | 0.555 | 0.451 | 0.43 | 0.591 | 0.539 | 0.636 | 0.494 | 0.72 | 0.697 | 0.648 | 
SK-LU-1 | 0.738 | 0.682 | 0.633 |  | 1.07 | 1.37 | 1.19 | 0.962 |  | 0.16 | 0.212 | 0.162 | 0.181 | 0.186 | 0.465 | 0.485 | 0.52 | 0.514 | 0.529 | 0.611
NCI-H23 | 0.582 | 0.547 | 0.541 | 0.446 | 0.751 |  | 0.866 | 0.731 | 0.58 | 1.06 | 0.688 | 0.694 | 0.78 | 0.972 | 0.389 | 0.393 | 0.376 | 0.371 | 0.379 | 0.494
NCI-H1944 | 0.353 |  | 0.368 | 0.324 | 0.85 |  | 0.893 | 0.714 | 0.84 | 0.198 | 0.208 | 0.2 | 0.2 | 0.234 | 0.408 | 0.376 | 0.449 | 0.436 | 0.402 | 0.335
NCI-H661 | 0.333 | 0.431 | 0.456 | 0.374 | 0.689 | 0.406 | 0.546 | 0.68 | 0.521 | 1.09 | 0.57 | 0.753 | 0.958 | 0.769 | 0.62 | 0.419 | 0.649 | 0.586 | 0.593 | 0.413
NCI-H1395 | 0.622 |  | 0.6 | 0.651 | 1.03 |  | 1.08 | 1 | 0.999 | 0.438 | 0.347 | 0.381 | 0.393 | 0.418 | 1.07 |  | 1.13 | 0.999 | 0.997 | 0.605
LCLC-97TM1 |  |  | 0.18 | 0.225 |  |  | 0.236 | 0.231 | 0.266 | 0.926 |  | 0.875 | 0.81 | 0.86 | 0.235 |  | 0.183 | 0.207 | 0.172 | 0.164
EPLC-272H | 0.301 |  | 0.402 | 0.344 | 1.04 |  | 0.987 | 1.03 | 0.843 | 0.393 |  | 0.367 | 0.311 | 0.289 | 0.256 |  |  | 0.295 | 0.268 | 0.286
EKVX | 0.419 | 0.343 | 0.475 | 0.528 | 0.967 | 0.883 | 0.89 | 0.835 | 1.01 | 0.58 |  | 0.549 | 0.502 | 0.505 | 0.376 |  | 0.295 | 0.325 |  | 0.508
NCI-H1975 | 0.332 | 0.311 | 0.294 | 0.28 | 0.61 | 0.721 | 0.775 | 0.621 | 0.553 | 0.426 | 0.262 | 0.38 | 0.371 | 0.259 | 0.364 | 0.273 | 0.375 | 0.41 | 0.326 | 0.324
NCI-H322M | 0.516 | 0.454 | 0.561 | 0.485 | 0.771 | 0.871 | 0.857 | 0.772 | 0.866 | 0.245 | 0.259 | 0.248 | 0.237 | 0.253 | 0.45 | 0.48 | 0.546 | 0.535 | 0.507 | 0.565

From the supplement of paper PMC10307832
